These results are taken from US5684013A, “Tricyclic compounds useful for inhibition of g-protein function and for treatment of proliferative diseases” (Schering Corporation, priority 1995, dated 1997).

“And” between values parts separate entries of the source, which are not always exact repeats. Equal values may be shown once. Some results are limits rather than exact numbers.

Usually IC50 stands for the point on the concentration scale where inhibition reaches its midpoint. As a reminder, the inhibition is the share of the control response that was lost under treatment.

The target of assay [1] is T1, farnesyl protein transferase (FPT) (Rattus norvegicus, UniProt Q02293+Q04631).
T1 construct: were partially purified from rat brain by ammonium sulfate fractionation; from tissue; host or cells: rat brain
As to the kind of experiment: In vitro enzyme assay: inhibition of farnesyl protein transferase (FPT), Ras-CVLS farnesylation. The settings on record: for IC50: read-out: FPT IC50. It counts as biochemical. An excerpt:
1. In vitro enzyme assays: Inhibition of farnesyl protein transferase and geranylgeranyl protein transferase.
Both farnesyl protein transferase (FPT) and geranylgeranyl protein transferase (GGPT) I were partially purified from rat brain by ammonium sulfate fractionation followed by Q-Sepharose (Pharmacia, Inc.) anion exchange chromatography essentially as described by Yokoyama et al (Yokoyama, K., et al., (1991), A protein geranylgeranyltransferase from bovine brain: Implications for protein prenylation specificity, Proc. Natl. Acad. Sci USA 88: 5302-5306, the disclosure of which is incorporated herein by reference thereto). Human farnesyl protein transferase was also expressed in E. coli, using cDNA clones encoding both the a and b subunits. The methods used were similar to those published (Omer, C. et al., (1993), Characterization of recombinant human farnesyl protein transferase: Cloning, expression, farnesyl diphosphate binding, and functional homology with yeast prenyl-protein transferases, Biochemistry 32:5167-5176). Human farnesyl protein transferase was partially-purified from the soluble protein fraction of E. coli as described above. the tricyclic farnesyl protein transferase inhibitors disclosed herein inhibited both human and rat enzyme with similar potencies. Two forms of val^12 -Ha-Ras protein were prepared as substrates for these enzymes, differing in their carboxy terminal sequence. One form terminated in cysteine-valine-leucine-serine (Ras-CVLS) the other in cystein-valine-leucine-leucine (Ras-CVLL). Ras-CVLS is a substrate for the farnesyl protein transferase while Ras-CVLL is a substrate for geranylgeranyl protein transferase I. The cDNAs encoding these proteins were constructed so that the proteins contain an amino-terminal extension of 6 histidine residues. Both proteins were expressed in Escherichia coli and purified using metal chelate affinity chromatography. The radiolabelled isoprenyl pyrophosphate substrates, [^3 H]farnesyl pyrophosphate and [^3 H]geranylgeranyl pyrophosphate, were purchased from DuPont/New England Nuclear.
Several methods for measuring farnesyl protein transferase activity have been described (Reiss et al 1990, Cell 62: 81; Schaber et al 1990, J. Biol. Chem. 265: 14701; Manne et al 1990, PNAS 87: 7541; and Barbacid & Manne 1993, U.S. Pat. No. 5,185,248). The activity was assayed by measuring the transfer of [^3 H]farnesyl from [^3 H]farnesyl pyrophosphate to Ras-CVLS using conditions similar to those described by Reiss et al. 1990 (Cell 62: 81) The reaction mixture contained 40 mM Hepes, pH 7.5; 20 mM magnesium chloride; 5 mM dithiothreitol; 0.25 μM [^3 H]farnesyl pyrophosphate; […] Q-Sepharose-purified farnesyl protein transferase; the indicated concentration of tricyclic compound or dimethylsulfoxide (DMSO) vehicle control (5% DMSO final); and […] Ras-CVLS in a total volume of […]. The reaction was allowed to proceed for 30 minutes at room temperature and then stopped with 0.5 ml of 4% sodium dodecyl sulfate (SDS) followed by 0.5 ml of cold 30% trichloracetic acid (TCA). Samples were allowed to sit on ice for 45 minutes and precipitated Ras protein was then collected on GF/C filter paper mats using a Brandel cell harvester. Filter mats were washed once with 6% TCA, 2% SDS and radioactivity was measured in a Wallac 1204 Betaplate BS liquid scintillation counter. Percent inhibition was calculated relative to the DMSO vehicle control.

The subject of assay [2] is Normal human HEPM fibroblasts. As to the kind of experiment: Cell Mat Assay: inhibition of normal cell growth (cell mat). Type of assay: cell-based. The settings on record: Fibroblast, mIC50, normal cell monolayer. Here is the method:
(§1) Normal human HEPM fibroblasts were planted in 3.5 cm dishes at a density of 5×10^4 cells/dish in 2 ml growth medium, and incubated for 3-5 d to achieve confluence. Medium was aspirated from each dish and the indicator tumor cells, T24-BAG4 human bladder carcinoma cells expressing an activated H-ras gene, were planted on top of the fibroblast monolayer at a density of 2×10^3 cells/dish in 2 ml growth medium, and allowed to attach overnight. Compound-induced colony inhibition was assayed by addition of serial dilutions of compound directly to the growth medium 24 h after tumor cell planting, and incubating cells for an additional 14 d to allow colony formation. Assays were terminated by rinsing monolayers twice with phosphate-buffered saline (PBS), fixing the monolayers with a 1% glutaraldehyde solution in PBS, then visualizing tumor cells by staining with X-Gal (Price, J., et al., Lineage analysis in the vertebrate nervous system by retrovirus-mediated gene transfer, Proc. Natl. Acad. Sci. 84, 156-160(1987)). In the colony inhibition assay, compounds were evaluated on the basis of two IC50 values: the concentration of drug required to prevent the increase in tumor cell number by 50% (tIC50) and the concentration of drug required to reduce the density of cells comprising the cell mat by 50% (mIC50). Both IC50 values were obtained by determining the density of tumor cells and mat cells by visual inspection and enumeration of cells per colony and the number of colonies under the microscope. The therapeutic index of the compound was quantitatively expressed as the ratio of mIC50 /tIC50, with values greater than one indicative of tumor target specificity.

For assay [3], the system named is T24-BAG4 human bladder carcinoma cells. As to the kind of experiment: Cell Mat Assay: inhibition of tumor cell growth. To be noted: 336 h, tIC50, 14 d colony formation. Type of assay: cell-based. Here is the method:
as §1

The mark [4] stands for this setting: read-out: FPT inhibition (percent).

Turning to `O=S(=O)(c1cccs1)N1CC/C(=C2\c3ccccc3CCc3cccnc32)C1` [Compound E-1B], the IC50 in assay [1] (Table 2) was 3.3 µM.

In the case of `O=S(=O)(c1cccs1)N1CCC/C(=C2\c3ccc(Cl)cc3CCc3cc(Br)cnc32)C1` [Compound E-1D], the IC50 in assay [1] (Table 2) was 0.84 µM.

Turning to `O=S(=O)(c1cccs1)N1CCC/C(=C2/c3ccc(Cl)cc3CCc3cccnc32)C1` [Compound E-1J], the IC50 in assay [1] (Table 2) was 4.8 µM.

With `O=C(NCc1ccc(S(=O)(=O)N2CCC/C(=C3/c4ccc(Cl)cc4CCc4cccnc43)C2)s1)c1ccccc1` [Compound E-1K], in assay [1] (Table 2), the IC50 was more than 34 µM.

Turning to `O=S(=O)(c1cccs1)N1CC/C(=C2\c3ccc(Cl)cc3CCc3cccnc32)C1` [Compound E-1], the IC50 in assay [1] (Table 2) is < 0.45 µM and 0.52 µM.

Take `O=S(=O)(c1ccccc1)N1CC/C(=C2\c3ccccc3CCc3cccnc32)C1` [Compound E-2C]: in assay [1] (Table 2), the IC50 came out at 2.8 µM.

In the case of `O=S(=O)(c1ccccc1)N1CCC/C(=C2\c3ccc(Cl)cc3CCc3cc(Br)cnc32)C1` [Compound E-2D], the IC50 in assay [1] (Table 2) was determined as 0.58 µM.

On to `COc1ccc(S(=O)(=O)N2CCC/C(=C3\c4ccc(Cl)cc4CCc4cccnc43)C2)cc1` [Compound E-2G], for which the inhibition at 42 µM in assay [1] (42 μM, read-out: FPT inhibition (percent)) was determined as 33%.

Regarding `O=S(=O)(c1ccc(F)cc1)N1CCC/C(=C2\c3ccc(Cl)cc3CCc3cccnc32)C1` [Compound E-2H], the IC50 in assay [1] (Table 2) was 1.34 µM; in assay [2] it was more than 25 µM; in assay [3], 12.5 µM.

With `CC(=O)Nc1ccc(S(=O)(=O)N2CCC/C(=C3\c4ccc(Cl)cc4CCc4cccnc43)C2)cc1` [Compound E-2J], in assay [1] (Table 2), the IC50 was more than 39.4 µM.

Turning to `Cc1ccc(S(=O)(=O)N2CCC/C(=C3\c4ccc(Cl)cc4CCc4cccnc43)C2)cc1` [Compound E-2K], the IC50 in assay [1] (Table 2) is more than 13 µM.

With `Cc1cc(C)c(S(=O)(=O)N2CCC/C(=C3\c4ccc(Cl)cc4CCc4cccnc43)C2)c(C)c1` [Compound E-2L], the IC50 in assay [1] (Table 2) is more than 12 µM.

For `CS(=O)(=O)N1CCC/C(=C2\c3ccc(Cl)cc3CCc3cccnc32)C1` [Compound E-2M], in assay [1] (15 μM, read-out: FPT inhibition (percent)), the inhibition at 15 µM came out at 15%.

Take `O=S(=O)(Cc1ccccc1)N1CCC/C(=C2\c3ccc(Cl)cc3CCc3cccnc32)C1` [Compound E-2N]: the IC50 in assay [1] (Table 2) was more than 13 µM.

As for `O=S(=O)(c1ccccc1)N1CCC/C(=C2/c3ccc(Cl)cc3CCc3cccnc32)C1` [Compound E-2P], in assay [1] (Table 2), the IC50 was 3.3 µM.

As for `O=[N+]([O-])c1ccc(S(=O)(=O)N2CCC/C(=C3/c4ccc(Cl)cc4CCc4cccnc43)C2)cc1` [Compound E-2Q], the IC50 in assay [1] (Table 2) was more than 40 µM.

Consider `COc1ccc(S(=O)(=O)N2CCC/C(=C3/c4ccc(Cl)cc4CCc4cccnc43)C2)cc1` [Compound E-2R], for which the IC50 in assay [1] (Table 2) was more than 42 µM.

Turning to `O=S(=O)(c1ccc(F)cc1)N1CCC/C(=C2/c3ccc(Cl)cc3CCc3cccnc32)C1` [Compound E-2S], the IC50 in assay [1] (Table 2) was more than 43 µM.

For the compound `CC(=O)Nc1ccc(S(=O)(=O)N2CCC/C(=C3/c4ccc(Cl)cc4CCc4cccnc43)C2)cc1` [Compound E-2T], in assay [1] (Table 2), the IC50 turned out to be 33.5 µM.

With `O=S(=O)(c1ccccc1)N1CCCC(C2c3ccc(Cl)cc3C=Cc3cccnc32)C1` (centres unmarked) [Compound E-2U], the IC50 in assay [1] (Table 2) came out at 6.4 µM.

For the compound `CS(=O)(=O)N1CCCC(C2c3ccc(Cl)cc3C=Cc3cccnc32)C1` (centres unmarked) [Compound E-2V], the IC50 in assay [1] (Table 2) was 44 µM.

Consider `O=C(Cc1ccncc1)N1CC/C(=C2/c3ccc(Cl)cc3CCc3cccnc32)C1` [Compound E-3A], for which, in assay [1] (setting [4]), the inhibition at 14 µM was found to be 11%.

On to `O=C(c1ccco1)N1CC/C(=C2/c3ccc(Cl)cc3CCc3cccnc32)C1` [Compound E-3B], for which the inhibition at 50 µM in assay [1] (50 μM, read-out: FPT inhibition (percent)) is 33%.

In the case of `O=C(Cc1cccnc1)N1CCCC(C2c3ccc(Cl)cc3CCc3cccnc32)C1` (centres unmarked) [Compound E-3C], in assay [1] (Table 2), the IC50 was found to be 8 µM.

As for `O=C(Cc1ccncc1)N1CCCC(C2c3ccc(Cl)cc3CCc3cccnc32)C1` (centres unmarked) [Compound E-3D], the IC50 in assay [1] (Table 2) was more than 13.9 µM.

As to `O=C(Cc1cccnc1)N1CCC/C(=C2\c3ccc(Cl)cc3CCc3cccnc32)C1` [Compound E-3E], the IC50 in assay [1] (Table 2) was determined as 7.8 µM.

`O=C(Cc1ccncc1)N1CCC/C(=C2\c3ccc(Cl)cc3CCc3cccnc32)C1` [Compound E-3F]: in assay [1] (Table 2), the IC50 is more than 14 µM.

With `O=C(CCc1ccccc1)N1CCC/C(=C2\c3ccc(Cl)cc3CCc3cccnc32)C1` [Compound E-3G], the IC50 in assay [1] (Table 2) is more than 45 µM.

As to `O=C(Cc1cccnc1)N1CCC/C(=C2/c3ccc(Cl)cc3CCc3cccnc32)C1` [Compound E-3J], the IC50 in assay [1] (Table 2) came to 5.1 µM.

Take `O=C(Cc1ccncc1)N1CCC/C(=C2/c3ccc(Cl)cc3CCc3cccnc32)C1` [Compound E-3K]: the IC50 in assay [1] (Table 2) was more than 14 µM.

For `O=C(CCc1ccccc1)N1CCC/C(=C2/c3ccc(Cl)cc3CCc3cccnc32)C1` [Compound E-3L], the IC50 in assay [1] (Table 2) was more than 45 µM.

As for `O=C(Cc1ccncc1)N1CC/C(=C2\c3ccc(Cl)cc3CCc3cccnc32)C1` [Compound E-3M], the inhibition at 14 µM in assay [1] (setting [4]) was 37%.

`O=C(CSc1ccncc1)N1CC/C(=C2\c3ccc(Cl)cc3CCc3cccnc32)C1` [Compound E-3N]: in assay [1] (Table 2), the IC50 turned out to be 4.2 µM.

As for `O=C(CSc1ccncc1)N1CC/C(=C2/c3ccc(Cl)cc3CCc3cccnc32)C1` [Compound E-3], the IC50 in assay [1] (Table 2) was 6.9 µM.

Take `O=S(=O)(c1cccnc1)N1CCCC(C2c3ccc(Cl)cc3C=Cc3cccnc32)C1` (centres unmarked) [Compound E-4A]: the IC50 in assay [1] (Table 2) is 7.5 µM.

As to `O=S(=O)(c1cccnc1)N1CCC/C(=C2/c3ccc(Cl)cc3CCc3cccnc32)C1` [Compound E-4B], the IC50 in assay [1] (Table 2) was 8.8 µM.

On to `O=S(=O)(c1cccnc1)N1CCC/C(=C2\c3ccc(Cl)cc3CCc3cccnc32)C1` [Compound E-4], for which the IC50 in assay [1] (Table 2) was found to be 0.97 µM.

In the case of `O=C(Nc1ccccc1)N1CCC/C(=C2\c3ccc(Cl)cc3CCc3cccnc32)C1` [Compound E-5], the IC50 in assay [1] (Table 2) is more than 14 µM.

As to `O=C(Sc1ccccc1)N1CCC/C(=C2\c3ccc(Cl)cc3CCc3cccnc32)C1` [Compound E-6], the IC50 in assay [1] (Table 2) is more than 13 µM.

Consider `O=C(c1cccnc1)N1CCC/C(=C2\c3ccc(Cl)cc3CCc3cccnc32)C1` [Compound E-7A], for which, in assay [1] (Table 2), the IC50 was more than 14.4 µM.

Take `O=C(Cc1ccccc1)N1CCC/C(=C2\c3ccc(Cl)cc3CCc3cccnc32)C1` [Compound E-7B]: the IC50 in assay [1] (Table 2) was more than 14 µM.

Consider `O=C(c1ccccc1)N1CCC/C(=C2\c3ccc(Cl)cc3CCc3cccnc32)C1` [Compound E-7], for which the “FPT IC50” value in assay [1] (Table 2) was “inactive”.
